In ChEMBL document CHEMBL1201862, “PubChem BioAssay data set” (2004) one finds EC50, IC50 and AC50 data, which are given here for 21 compounds.

In data set [1] the target is T1, Peroxisome proliferator-activated receptor gamma/Nuclear receptor coactivator 1 (Homo sapiens, UniProt P37231). Briefly: TR-FRET dose response biochemical High Throughput Screening assay for agonists of the steroid receptor coactivator 1 (SRC-1) recruitment by the peroxisome proliferator-activated receptor gamma (PPAR gamma): non-selective agonists. [Related pubchem assays (depositor defined):AID1300, AID1808, AID504735, AID631]. In kind it is protein assay.
T1 sequence (P37231 whole entry): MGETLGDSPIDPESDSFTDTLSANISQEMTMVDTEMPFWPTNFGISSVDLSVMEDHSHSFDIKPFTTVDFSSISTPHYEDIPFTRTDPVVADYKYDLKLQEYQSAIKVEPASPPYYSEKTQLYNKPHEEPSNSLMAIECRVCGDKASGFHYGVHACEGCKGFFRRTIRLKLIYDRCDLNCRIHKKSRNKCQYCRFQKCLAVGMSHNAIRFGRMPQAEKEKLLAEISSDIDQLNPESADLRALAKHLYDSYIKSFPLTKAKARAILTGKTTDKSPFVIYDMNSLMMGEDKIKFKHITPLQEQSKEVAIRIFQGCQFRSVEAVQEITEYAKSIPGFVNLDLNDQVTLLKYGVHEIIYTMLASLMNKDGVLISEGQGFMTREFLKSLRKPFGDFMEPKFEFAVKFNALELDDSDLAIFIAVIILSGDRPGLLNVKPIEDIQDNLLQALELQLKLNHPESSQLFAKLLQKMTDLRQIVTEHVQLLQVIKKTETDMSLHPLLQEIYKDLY
T1 sequence (Q15788 whole entry, further chain): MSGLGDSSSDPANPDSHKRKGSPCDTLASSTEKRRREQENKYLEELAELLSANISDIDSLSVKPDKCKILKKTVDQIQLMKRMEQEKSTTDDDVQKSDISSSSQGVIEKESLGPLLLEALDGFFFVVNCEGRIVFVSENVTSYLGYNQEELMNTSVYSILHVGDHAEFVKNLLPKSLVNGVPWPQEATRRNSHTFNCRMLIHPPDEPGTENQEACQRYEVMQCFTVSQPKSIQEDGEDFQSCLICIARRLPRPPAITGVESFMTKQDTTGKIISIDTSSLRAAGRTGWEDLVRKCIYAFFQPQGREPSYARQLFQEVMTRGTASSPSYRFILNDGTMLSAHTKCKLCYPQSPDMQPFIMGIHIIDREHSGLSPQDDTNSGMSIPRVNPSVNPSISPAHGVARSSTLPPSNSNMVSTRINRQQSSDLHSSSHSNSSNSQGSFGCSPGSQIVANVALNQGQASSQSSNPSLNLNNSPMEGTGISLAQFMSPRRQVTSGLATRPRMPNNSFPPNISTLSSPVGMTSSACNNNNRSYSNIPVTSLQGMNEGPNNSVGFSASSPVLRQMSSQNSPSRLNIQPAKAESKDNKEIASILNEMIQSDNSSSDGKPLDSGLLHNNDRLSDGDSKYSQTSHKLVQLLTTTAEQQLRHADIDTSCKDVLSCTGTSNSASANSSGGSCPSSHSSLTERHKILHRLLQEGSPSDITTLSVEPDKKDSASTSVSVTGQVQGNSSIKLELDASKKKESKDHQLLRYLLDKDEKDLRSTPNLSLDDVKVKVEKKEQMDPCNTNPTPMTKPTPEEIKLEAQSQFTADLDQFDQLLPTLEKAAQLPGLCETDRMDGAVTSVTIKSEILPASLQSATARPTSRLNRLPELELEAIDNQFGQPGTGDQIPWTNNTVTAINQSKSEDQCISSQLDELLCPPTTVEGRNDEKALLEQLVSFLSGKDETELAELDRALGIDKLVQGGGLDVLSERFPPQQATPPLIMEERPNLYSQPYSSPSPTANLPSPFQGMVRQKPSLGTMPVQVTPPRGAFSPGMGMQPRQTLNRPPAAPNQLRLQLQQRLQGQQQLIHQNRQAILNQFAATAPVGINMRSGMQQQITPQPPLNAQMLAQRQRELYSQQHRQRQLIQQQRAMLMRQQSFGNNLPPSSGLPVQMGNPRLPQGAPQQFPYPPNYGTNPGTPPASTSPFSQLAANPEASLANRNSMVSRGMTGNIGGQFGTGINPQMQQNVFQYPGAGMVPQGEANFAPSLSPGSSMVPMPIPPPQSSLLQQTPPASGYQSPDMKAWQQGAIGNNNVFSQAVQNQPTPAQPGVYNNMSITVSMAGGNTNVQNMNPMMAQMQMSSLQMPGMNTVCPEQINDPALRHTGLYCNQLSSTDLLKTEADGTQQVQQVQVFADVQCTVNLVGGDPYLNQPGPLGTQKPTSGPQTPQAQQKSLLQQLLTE

In data set [2] the target is T2, Peroxisome proliferator-activated receptor gamma/Nuclear receptor coactivator 3 (Homo sapiens, UniProt P37231). Briefly: TR-FRET dose response biochemical High Throughput Screening assay for agonists of the steroid receptor coactivator 3 (SRC-3) recruitment by the peroxisome proliferator-activated receptor gamma (PPAR gamma): non-selective agonists. [Related pubchem assays: 1301 (Confirmation screen.), 1048 (Primary screen.)]. In kind it is functional. (In TR-FRET formats the signal depends on donor and acceptor labels being close together.)

Data set [3] addresses T3, Peroxisome proliferator-activated receptor gamma/Nuclear receptor coactivator 2 (Homo sapiens, UniProt P37231). The experiment in a line: TR-FRET dose response biochemical High Throughput Screening assay for agonists of the steroid receptor coactivator 2 (SRC-2) recruitment by the peroxisome proliferator-activated receptor gamma (PPAR gamma): non-selective agonists. [Related pubchem assays: 1297, 1032 ]. In kind it is functional.

Data set [4] is described as follows: HEK-293T cell viability reduction – luminescence, B-cell screen hits, cytotoxicity control for BCR NF-kB inhibitor project, dose response (AID 489021).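 Further: HEK-293T cells carrying an NF-kB luciferase reporter; cells exposed to compound for about 14 hours before viability readout.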 Type of data set: functional, cell-based.
The next data set addresses Cytochrome P450 2C19 (Homo sapiens, UniProt P33261). The experiment in a line: Cytochrome panel assay with activity outcomes. Panel member name: p450-cyp2c19 Compounds with AC50 equal or less than 10 uM are considered active. Type of data set: functional. The note with it: read-out: AC50.
The target of data set [5] is T4, Cytochrome P450 3A4 (Homo sapiens, UniProt P08684).
T4 sequence (P08684 whole entry): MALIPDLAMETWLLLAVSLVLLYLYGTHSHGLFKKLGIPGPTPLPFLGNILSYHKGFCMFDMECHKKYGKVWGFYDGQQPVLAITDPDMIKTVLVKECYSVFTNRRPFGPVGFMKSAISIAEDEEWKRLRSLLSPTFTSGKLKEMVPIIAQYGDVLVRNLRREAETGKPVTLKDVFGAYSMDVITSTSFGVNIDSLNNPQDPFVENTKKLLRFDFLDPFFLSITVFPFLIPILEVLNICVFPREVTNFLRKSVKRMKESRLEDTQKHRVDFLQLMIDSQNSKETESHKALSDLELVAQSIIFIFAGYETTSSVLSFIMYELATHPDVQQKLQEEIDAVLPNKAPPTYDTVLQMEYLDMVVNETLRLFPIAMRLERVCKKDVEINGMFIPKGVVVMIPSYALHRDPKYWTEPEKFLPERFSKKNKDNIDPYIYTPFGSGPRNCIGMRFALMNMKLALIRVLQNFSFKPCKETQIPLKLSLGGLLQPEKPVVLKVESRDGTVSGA
A further data set concerns the target Cytochrome P450 2C9 (Homo sapiens, UniProt P11712).
The target of the next data set is Troponin, cardiac muscle (Homo sapiens, UniProt P19429+P45379+P63316). The experiment in a line: Fluorescence-based biochemical high throughput dose response assay for activators of the calcium sensitivity of cardiac Regulated Thin Filaments (RTF). [Related pubchem assays (depositor defined):AID493008, AID493018, AID504382, AID504383]. In kind it is protein-complex assay.

For data set [6], the target named is T5, E3 ubiquitin-protein ligase XIAP (Homo sapiens, UniProt P98170). Briefly: Counter Screen using XIAP-Bir3 for Chemical Antagonists of Bir1/2 domains of IAP-family anti-apoptotic proteins. [Related pubchem assays (depositor defined):AID1018, AID1449, AID1514, AID1638, AID1749, AID1750, AID488957, AID488963]. A general note: The purpose of a counterscreen is to sort out artefacts and off-target activity.
T5 sequence (P98170 whole entry): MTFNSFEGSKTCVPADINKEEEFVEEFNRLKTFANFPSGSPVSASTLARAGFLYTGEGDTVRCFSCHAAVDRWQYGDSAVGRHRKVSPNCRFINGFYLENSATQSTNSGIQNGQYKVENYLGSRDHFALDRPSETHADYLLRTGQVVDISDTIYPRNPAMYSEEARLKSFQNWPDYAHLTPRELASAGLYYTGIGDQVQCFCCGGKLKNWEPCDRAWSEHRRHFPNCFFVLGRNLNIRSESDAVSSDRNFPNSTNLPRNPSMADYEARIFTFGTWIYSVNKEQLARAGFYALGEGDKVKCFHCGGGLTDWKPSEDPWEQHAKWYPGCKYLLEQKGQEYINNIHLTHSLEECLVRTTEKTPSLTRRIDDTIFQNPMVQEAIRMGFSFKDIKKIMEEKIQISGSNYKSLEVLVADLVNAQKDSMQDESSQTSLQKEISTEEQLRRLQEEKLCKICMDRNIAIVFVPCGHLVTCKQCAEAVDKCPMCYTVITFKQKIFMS

Data set [7] concerns the target T5, E3 ubiquitin-protein ligase XIAP. Briefly: small molecules displacing peptide from XIAP – biochemical, IAP family, fluorescence polarization (AID 1018). In kind it is functional.
The target of data set [8] is T6, Heat shock factor protein 1 (Mus musculus, UniProt P38532).
T6 sequence (P38532 whole entry): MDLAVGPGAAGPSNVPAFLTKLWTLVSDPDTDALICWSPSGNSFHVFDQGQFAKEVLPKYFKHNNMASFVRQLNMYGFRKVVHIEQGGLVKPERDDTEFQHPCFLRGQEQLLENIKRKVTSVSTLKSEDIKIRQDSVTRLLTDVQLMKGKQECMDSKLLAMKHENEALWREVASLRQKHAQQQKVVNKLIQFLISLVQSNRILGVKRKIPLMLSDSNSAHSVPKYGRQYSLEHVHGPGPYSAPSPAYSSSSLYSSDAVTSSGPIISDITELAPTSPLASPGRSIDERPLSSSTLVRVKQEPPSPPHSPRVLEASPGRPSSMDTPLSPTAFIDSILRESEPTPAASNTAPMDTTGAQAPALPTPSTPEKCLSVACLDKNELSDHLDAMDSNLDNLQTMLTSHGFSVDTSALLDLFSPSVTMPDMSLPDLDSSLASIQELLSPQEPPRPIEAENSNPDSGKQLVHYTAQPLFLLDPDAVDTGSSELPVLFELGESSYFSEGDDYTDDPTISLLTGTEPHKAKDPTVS
Briefly: decrease of HSF1-responsive luciferase luminescence – cell-based, NIH3T3, dose retest, confirmation (AID 2382).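 Further: NIH3T3 fibroblasts with HSF1-driven luciferase reporter stressed by proteasome inhibitor MG132; luminescence from HSF1-driven luciferase expression after 8 hours of MG132 stress.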 Type of data set: functional.

The target in the next data set is Estrogen receptor beta (Homo sapiens, UniProt Q92731). Briefly: blockers of SRC-3 recruitment to ERβ – biochemical, ELISA, streptavidin-HRP readout, orthogonal assay, confirmation (AID 1060). For orientation: An ELISA detects its analyte on a solid surface through an enzyme-linked reagent.
For data set [9], the target named is T4, Cytochrome P450 3A4. The note with it: Potency.
Data set [10] concerns the target T3, Peroxisome proliferator-activated receptor gamma/Nuclear receptor coactivator 2. In kind it is functional.
The target of data set [11] is T1, Peroxisome proliferator-activated receptor gamma/Nuclear receptor coactivator 1. Type of data set: functional.
Data set [12] deals with T2, Peroxisome proliferator-activated receptor gamma/Nuclear receptor coactivator 3. In kind it is functional.
Data set [13] concerns the target T7, RNA-binding protein pos-1 (Caenorhabditis elegans, UniProt G5EF15).
T7 sequence (G5EF15 whole entry): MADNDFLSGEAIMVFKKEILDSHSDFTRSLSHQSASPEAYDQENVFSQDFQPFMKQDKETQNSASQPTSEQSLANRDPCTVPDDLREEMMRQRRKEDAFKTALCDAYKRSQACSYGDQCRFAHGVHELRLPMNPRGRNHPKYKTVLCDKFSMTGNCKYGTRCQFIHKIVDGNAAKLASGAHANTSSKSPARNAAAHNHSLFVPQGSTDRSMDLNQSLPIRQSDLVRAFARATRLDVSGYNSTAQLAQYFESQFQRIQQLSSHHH
Briefly: disruptors of C. elegans POS-1 RNA interaction – biochemical, fluorescence polarization, dose response (AID 1964).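 Further: purified POS-1 fused to maltose binding protein made in E. coli; potency of compounds blocking POS-1 binding to fluorescent RNA.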

Another data set relates to H4. The experiment in a line: Luminescence Cell-Based Dose Response HTS to Identify Activators of 5'UTR Stem-Loop Driven Prion Protein mRNA Translation in H4 Neuroglioblastoma Cells. [Related pubchem assays: 1829 (Project Summary), 1814 (Primary HTS)]. In kind it is functional. The note with it: Homo sapiens.
Data set [14] addresses T8, Zinc finger protein mex-5 (Caenorhabditis elegans, UniProt Q9XUB2).
T8 sequence (Q9XUB2 whole entry): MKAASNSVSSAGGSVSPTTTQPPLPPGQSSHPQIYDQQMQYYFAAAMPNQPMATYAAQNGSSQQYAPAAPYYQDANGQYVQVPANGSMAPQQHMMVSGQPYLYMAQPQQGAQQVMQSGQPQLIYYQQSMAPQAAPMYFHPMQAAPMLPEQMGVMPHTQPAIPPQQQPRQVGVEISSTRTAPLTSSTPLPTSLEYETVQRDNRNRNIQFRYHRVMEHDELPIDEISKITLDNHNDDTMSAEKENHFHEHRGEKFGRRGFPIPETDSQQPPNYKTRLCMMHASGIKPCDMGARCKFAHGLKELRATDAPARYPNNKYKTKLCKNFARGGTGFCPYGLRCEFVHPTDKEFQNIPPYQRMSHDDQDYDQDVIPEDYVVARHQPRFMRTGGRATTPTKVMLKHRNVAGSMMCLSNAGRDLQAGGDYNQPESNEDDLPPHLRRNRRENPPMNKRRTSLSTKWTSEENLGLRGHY
Briefly: potency of MEX-5 RNA-binding blockers – biochemical, C. elegans, fluorescence polarization, dose response (AID 1960).

A further data set has as its target Cytochrome P450 2D6 (Homo sapiens, UniProt P10635).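 Further: CYP2D6 member of a cytochrome P450 panel assay.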
For data set [15], the target named is T9, Microphthalmia-associated transcription factor (Homo sapiens, UniProt O75030).
T9 sequence (O75030 whole entry): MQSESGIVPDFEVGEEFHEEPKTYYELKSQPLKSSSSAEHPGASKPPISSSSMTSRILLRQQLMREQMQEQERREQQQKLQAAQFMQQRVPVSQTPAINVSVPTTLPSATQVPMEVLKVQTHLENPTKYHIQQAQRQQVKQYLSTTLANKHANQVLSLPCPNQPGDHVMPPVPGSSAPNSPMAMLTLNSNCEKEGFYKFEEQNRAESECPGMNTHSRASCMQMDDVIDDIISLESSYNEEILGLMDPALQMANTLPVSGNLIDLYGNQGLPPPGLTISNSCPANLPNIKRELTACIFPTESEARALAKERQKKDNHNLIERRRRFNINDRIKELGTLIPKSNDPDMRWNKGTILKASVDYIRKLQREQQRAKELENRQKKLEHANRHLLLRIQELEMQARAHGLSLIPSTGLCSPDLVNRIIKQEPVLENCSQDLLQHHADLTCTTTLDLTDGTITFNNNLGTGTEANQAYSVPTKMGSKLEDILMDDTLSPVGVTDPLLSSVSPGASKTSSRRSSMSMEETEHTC
Briefly: reducers of TRPM1 reporter luminescence, concentration series – cell-based, SK-MEL-5, cherry-picked, set 3, MITF inhibitor project, dose response (AID 493073).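 Further: SK-MEL-5 melanoma cells with luciferase driven by the MITF target TRPM1 promoter.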 In kind it is functional.

For a further data set, the target named is Paired box protein Pax-8 (Homo sapiens, UniProt Q06710). Briefly: PAX8 transcriptional activity inhibition in RMG-I – RMG-I cells, luciferase, cherry-pick, dose response (AID 687027).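 Further: luciferase reporter driven by Pax8 target thyroperoxidase promoter measured by SteadyGlo luminescence.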 Type of data set: functional, cell-based.
A short description of data set [16]: viability loss in HepG2 hepatoma cells – cell-based, ATP luminescence, cherry-pick, activator set 2, cytotoxicity control, dose response (AID 1053143). Type of data set: functional.

The term EC50 denotes the concentration giving half of the maximal effect. Usually IC50 stands for the concentration that inhibits the measured activity by half. In general, AC50 refers to the concentration giving half of the maximal activity seen.

Each structure is given as a SMILES string. Calls of active or inactive are those of the source.

T3 sequence (P37231 whole entry): as the sequence (P37231 whole entry) above
T3 sequence (Q15596 whole entry, further chain): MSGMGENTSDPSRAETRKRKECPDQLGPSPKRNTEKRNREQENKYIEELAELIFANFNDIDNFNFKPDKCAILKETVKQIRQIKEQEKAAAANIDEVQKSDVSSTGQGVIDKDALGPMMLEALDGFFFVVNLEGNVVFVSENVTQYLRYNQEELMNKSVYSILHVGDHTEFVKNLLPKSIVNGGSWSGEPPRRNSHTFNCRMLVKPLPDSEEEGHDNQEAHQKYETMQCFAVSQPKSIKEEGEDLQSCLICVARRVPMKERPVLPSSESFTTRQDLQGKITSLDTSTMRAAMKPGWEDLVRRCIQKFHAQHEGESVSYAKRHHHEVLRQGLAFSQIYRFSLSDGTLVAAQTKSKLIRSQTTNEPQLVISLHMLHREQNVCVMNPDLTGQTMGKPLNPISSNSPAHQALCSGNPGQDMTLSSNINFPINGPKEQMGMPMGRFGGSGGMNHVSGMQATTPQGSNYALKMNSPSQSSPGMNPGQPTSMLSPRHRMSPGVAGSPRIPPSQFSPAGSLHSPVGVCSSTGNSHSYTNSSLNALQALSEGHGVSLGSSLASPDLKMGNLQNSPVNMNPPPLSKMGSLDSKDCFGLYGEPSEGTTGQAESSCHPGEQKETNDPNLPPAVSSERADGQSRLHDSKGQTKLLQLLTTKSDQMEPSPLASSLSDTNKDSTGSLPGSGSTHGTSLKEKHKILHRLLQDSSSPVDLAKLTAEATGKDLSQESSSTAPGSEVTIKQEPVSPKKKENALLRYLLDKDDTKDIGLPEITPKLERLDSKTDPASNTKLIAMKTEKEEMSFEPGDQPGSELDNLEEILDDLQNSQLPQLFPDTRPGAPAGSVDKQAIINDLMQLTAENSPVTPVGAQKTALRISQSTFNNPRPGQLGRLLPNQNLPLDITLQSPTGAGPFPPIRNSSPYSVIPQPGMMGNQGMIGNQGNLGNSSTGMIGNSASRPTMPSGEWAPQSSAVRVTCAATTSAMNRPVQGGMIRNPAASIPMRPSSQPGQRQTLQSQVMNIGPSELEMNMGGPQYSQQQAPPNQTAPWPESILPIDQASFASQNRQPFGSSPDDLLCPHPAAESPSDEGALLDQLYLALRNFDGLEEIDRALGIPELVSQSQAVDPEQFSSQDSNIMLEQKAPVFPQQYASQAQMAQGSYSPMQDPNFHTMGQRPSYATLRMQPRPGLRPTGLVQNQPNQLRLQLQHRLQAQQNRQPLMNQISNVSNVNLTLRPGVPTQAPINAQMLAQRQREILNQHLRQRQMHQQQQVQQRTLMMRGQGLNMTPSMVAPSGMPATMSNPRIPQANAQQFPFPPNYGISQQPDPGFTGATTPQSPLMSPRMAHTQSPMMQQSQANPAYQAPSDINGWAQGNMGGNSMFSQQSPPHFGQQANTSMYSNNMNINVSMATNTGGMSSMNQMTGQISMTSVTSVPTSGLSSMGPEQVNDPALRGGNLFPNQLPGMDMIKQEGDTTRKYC

On to `CCn1c(=O)cc(SCC(=O)N2CCN(C)CC2)c2ccccc21`, for which the values for the EC50 in data set [1], in data set [2] and in data set [3] were > 79.4 µM (inactive), > 79.4 µM (not active) and > 79.4 µM (not active), respectively. In addition, the IC50 in [4] was > 80 µM (inactive).
With `Cn1c(=O)cc(SCC(=O)Nc2cccnc2)c2ccccc21`, the EC50 was > 79.4 µM (inactive) in data set [1], > 79.4 µM (not active) in [2] and > 79.4 µM (not active) in data set [3].
Turning to `CN(CCCNC(=O)C1CCN(S(=O)(=O)c2cccc3nsnc23)CC1)Cc1ccccc1`, the AC50 on Cytochrome P450 2C19 was 39.8 µM (inconclusive); on Cytochrome P450 3A4 [5], 3.16 µM (inconclusive); at Cytochrome P450 2C9, “inconclusive”.
In the case of `CCOc1ccc2ccccc2c1CNCCN1CCOCC1`, at Troponin, cardiac muscle, the EC50 was > 71.5 µM (inactive).
Regarding `O=C(NCc1ccc(Cl)cc1)c1ccc2[nH]cnc2c1`, the figures for the IC50 in [6] and in data set [7] were > 100 µM (inactive) and > 100 µM (not active), respectively.
Take `N#CC1(C#N)COC23CCCCC2C1(C#N)C(=N)O3` (stereo not given): the EC50 in data set [8] is > 195 µM (not active). In addition, the figures for the IC50 in data set [6] and in data set [7] were > 100 µM (inactive) and > 100 µM (not active), respectively.
Consider `COC(=O)c1ccc(NC(=O)CSc2nc(C)cc(=O)[nH]2)cc1`, for which, at Estrogen receptor beta, the IC50 is on record as > 50 µM (not active).
Consider `Cc1nc(NC2CCCCC2)c2nc(-c3ccccc3)n(CCN3CCCC3)c2n1`, for which the AC50 at Cytochrome P450 3A4 [9] is 25.1 µM (inconclusive).
With `CC(C)CC1(C(=O)O)NC(c2ccccc2O)C2C(=O)N(C(C)C)C(=O)C21` (stereo not given), the IC50 in data set [6] was > 100 µM (inactive); in data set [7], > 100 µM (not active).
Regarding `O=C(CSc1nc2cc(Br)c[nH]c-2n1)c1cccc([N+](=O)[O-])c1`, the EC50 on Troponin, cardiac muscle was > 71.5 µM (inactive).
Regarding `Nc1ccccc1-c1nnc(S)s1`, the EC50 in [1] was 14.9 µM (inactive); in data set [2], > 79.4 µM (not active); in data set [3] it was 15.6 µM (not active).
As to `O=C(Nc1cccc(NS(=O)(=O)c2ccc(S(=O)(=O)NC3CC3)cc2)c1)c1ccccn1`, the EC50 in [10], in data set [11] and in [12] was > 79.4 µM (not active) throughout.
On to `CC(=O)N1N=C(c2ccc(Br)cc2)CC1c1cn(C)c2ccccc12` (stereo not given), for which the EC50 in [1] was 18.5 µM (inactive); in [2], > 79.4 µM (not active); in [3] it was 18.3 µM (not active).
`O=C(Cc1nc2ccccc2nc1O)c1ccccc1`: the EC50 in data set [10] was > 79.4 µM (not active); in [11], > 79.4 µM (not active); in [13], 42.5 µM (inconclusive); in data set [12] it was > 79.4 µM (not active); in the data set with H4 it was 0.419 µM (active); in data set [14] it was > 300 µM (inconclusive).
For the compound `NC(=O)CNCCC(c1ccccc1)c1ccccc1`, the AC50 on Cytochrome P450 3A4 [9] is 15.8 µM (inconclusive).
As to `S=C(NC1CCCCC1)NC1CCCCC1`, the AC50 on Cytochrome P450 3A4 [9] was 25.1 µM (inconclusive).
As to `CN(Cc1ccccc1)C(=O)c1[nH]cnc1C(=O)NCc1ccccc1`, the EC50 on Troponin, cardiac muscle is > 71.6 µM (inactive).
For the compound `Cc1ccc(N(CC(=O)N/N=C/c2cccc(Br)c2)S(C)(=O)=O)cc1`, the IC50 in data set [6] is > 100 µM (inactive); in data set [7], > 100 µM (not active).
Take `CCOC(=O)c1s/c(=N\C(=O)c2ccc(OC)c(OC)c2)n(C)c1C`: the EC50 is 12.2 µM (not active) in [10], 8.1 µM (active) in data set [11] and 11.4 µM (not active) in data set [12].
Regarding `CCCCN1CCC(CCC(=O)c2cc(Cl)c(N)cc2OC)CC1`, the AC50 was 12.6 µM (inconclusive) on Cytochrome P450 2D6 and “inconclusive” at Cytochrome P450 2C9.
For `COc1cc(/C=C/C(=O)N2CCC=CC2=O)cc(OC)c1OC` [PIPLARTINE], the AC50 in [15] is 7.4 µM (active); on Paired box protein Pax-8, 2.69 µM (active); in [16], 17.4 µM (active); at Cytochrome P450 3A4 [9], 0.0501 µM (inconclusive).
